Experimental data taken from patent US7928135B2, “Benzene, pyridine, and pyridazine derivatives” (Serenex, Inc., priority 2005, dated 2011).

Experiments:
PC-3 cell proliferation = test: Cell proliferation assay (WST-1), PC-3; assay type: cell-based; conditions: Homo sapiens; PC-3 cells, WST-1 readout; read-out: inhibitory activity against PC-3 cell proliferation (IC50 range)
Procedure: A panel of cancer cell lines was obtained from the DCTP Tumor Repository, National Cancer Institute (Frederick, Md.) or ATCC (Rockville, Md.). Cell cultures were maintained in Hyclone RPMI 1640 medium (Logan, Utah) supplemented with 10% fetal bovine serum and 20 mM HEPES buffer, final pH 7.2, at 37° C. with a 5% CO2 atmosphere. Cultures were maintained at sub-confluent densities. Human umbilical vein endothelial cells (HUVEC) were purchased from Clonetics, a division of Cambrex (Walkersville, Md.). Cultures were established from cryopreserved stocks using Clonetics EGM-2 medium supplemented with 20 mM HEPES, final pH 7.2, at 37° C. with a 5% CO2 atmosphere.
For proliferation assays, cells were seeded with the appropriate medium into 96 well plates at 1,000-2,500 cells per well, depending on the cell line, and were incubated overnight. The following day, test compound, DMSO solution (negative control), or Actinomycin D (positive control) was added to the appropriate wells as 10× concentrated stocks prepared in phosphate buffered saline. The cell plates were then incubated for an additional 2-5 days, depending on the cell line, to allow proliferation to occur. To measure cell density, 50 μL of WST-1 solution (Roche Applied Science, Ind.) diluted 1:5 in phosphate buffered saline was added to each well, and the cells incubated for an additional 1-5 hrs., again depending on the cell line. Optical density was determined for each well at […] using a Tecan GeniosPro plate reader (RTP, NC). The percentage of cell growth was determined by comparing the cell growth in the presence of test compounds to the cells treated with DMSO vehicle (control, 100% growth) and cells treated with Actinomycin D (10 μM, 0% growth). […]

[1] = system: HSP-90 (heat shock protein 90); test: Determination of affinity for HSP-90 (elution from purine affinity column, SDS-PAGE densitometry); assay type: binding; set-up: key: +++: very high; ++: high; +: moderate; conditions: elution of HSP-90 from purine affinity column with 20, 100 and 500 μM test compound
Procedure: Affinity of test compounds for HSP-90 was determined as follows: Protein mixtures obtained from a variety of organ tissues (for example: spleen, liver and lung) were reversibly bound to a purine affinity column to capture purine-binding proteins, especially HSP-90. The purine affinity column was washed several times, and then eluted with 20 μM, 100 μM, and 500 μM of test compound. Compounds of Formula I elute HP-90 in a dose-dependent manner vs. a control elution using dimethylsulfoxide. The elution profile of Formula I compounds was determined by 1-dimensional SDS polyacrylamide gel electrophoresis. Gels were stained with a fluorescent stain such as sypro ruby (a highly sensitive fluorescent protein stain that can readily detect less than 1 fmol of total protein, i.e., less than 0.04 ng for a 40 kDa protein) or silver nitrate. The gels were imaged using a standard flat bed gel imager and the amount of protein estimated by densitometry. The percent of HSP-90 protein eluted from the column at each concentration was determined and IC50 values were calculated from these estimates. The identity of a band containing HSP-90 was determined by protein sequencing using mass spectroscopy.
Compounds of the invention are inhibitors of HSP-90 (heat shock protein 90). Several exemplary compounds useful in the methods of the invention are listed below.

SMILES	IC50 (PC-3 cell proliferation) [µM]	relative binding affinity to HSP-90 [1]
Cc1cc2c(n1-c1ccc(C(N)=O)cc1-c1ccsc1)CC(C)(C)CC2=O [Compound 70, 3-(3-thienyl)-4-(2,6,6-trimethyl-4-oxo-4,5,6,7-tetrahydro-1H-indol-1-yl)benzamide]	5 to 50	+
CCc1cc(-n2nc(C)c3c2CC(C)(C)CC3=O)ccc1C(N)=O [Compound 102, 2-ethyl-4-(3,6,6-trimethyl-4-oxo-4,5,6,7-tetrahydro-1H-indazol-1-yl)benzamide]	5 to 50	++
Cc1nn(-c2ccc(C(N)=O)c(NC(CCO)CCO)c2)c2c1C(=O)CC(C)(C)C2 [Compound 121, 2-{[3-hydroxy-1-(2-hydroxyethyl)propyl]amino}-4-(3,6,6-trimethyl-4-oxo-4,5,6,7-tetrahydro-1H-indazol-1-yl)benzamide]	0.5 to 5	+++
CC1(C)CC(=O)c2c(C(F)(F)F)nn(-c3ccc(C(N)=O)c(NCCNS(C)(=O)=O)c3)c2C1 [Compound 133, 4-[6,6-dimethyl-4-oxo-3-(trifluoromethyl)-4,5,6,7-tetrahydro-1H-indazol-1-yl]-2-({2-[(methylsulfonyl)amino]ethyl}amino)benzamide]	5 to 50	++
Cc1cn(-c2ccc(C(N)=O)c(NC(N)=O)c2)c2c1C(=O)CC(C)(C)C2 [Compound 55, 1-(2-carbamoyl-5-(3,6,6-trimethyl-4-oxo-4,5,6,7-tetrahydroindol-1-yl)phenyl)urea]	0.5 to 5	++
Cc1cn(-c2ccc(C(N)=O)c(Sc3ccncc3)c2)c2c1C(=O)CC(C)(C)C2 [Compound 105, 2-(pyridin-4-ylthio)-4-(3,6,6-trimethyl-4-oxo-4,5,6,7-tetrahydro-1H-indol-1-yl)benzamide]	5 to 50	++
Cc1nn(-c2ccc(C(N)=O)c(NC3CCC3)c2)c2c1C(=O)CC(C)(C)C2 [Compound 117, 2-(cyclobutylamino)-4-(3,6,6-trimethyl-4-oxo-4,5,6,7-tetrahydro-1H-indazol-1-yl)benzamide]	< 0.5	+++
Cc1cn(-c2ccc(C(N)=O)c(N3CCN(C)CC3)c2)c2c1C(=O)CC(C)(C)C2 [Compound 99, 2-(4-methylpiperazin-1-yl)-4-(3,6,6-trimethyl-4-oxo-4,5,6,7-tetrahydro-1H-indol-1-yl)benzamide]	5 to 50	++
CCCCSc1cc(-n2nc(C)c3c2CC(C)(C)CC3=O)ccc1C(N)=O [Compound 103, 2-(butylthio)-4-(3,6,6-trimethyl-4-oxo-4,5,6,7-tetrahydro-1H-indazol-1-yl)benzamide]	0.5 to 5	++
CCCCOc1cc(C(N)=O)ccc1-n1cc(C)c2c1CC(C)(C)CC2=O [Compound 53, 3-butoxy-4-(3,6,6-trimethyl-4-oxo-4,5,6,7-tetrahydroindol-1-yl)benzamide]	5 to 50	++
Cc1cc2c(n1-c1ccc(C(N)=O)c(NN3CCOCC3)c1)CC(C)(C)CC2=O [Compound 94, 2-(morpholin-4-ylamino)-4-(2,6,6-trimethyl-4-oxo-4,5,6,7-tetrahydro-1H-indol-1-yl)benzamide]	5 to 50	++
COc1cc(Nc2cc(-n3c(C)cc4c3CC(C)(C)CC4=O)ccc2C(N)=O)cc(OC)c1OC [Compound 76, 2-[(3,4,5-trimethoxyphenyl)amino]-4-(2,6,6-trimethyl-4-oxo-4,5,6,7-tetrahydro-1H-indol-1-yl)benzamide]	0.5 to 5	+++
Cc1cc2c(n1-c1ccc(C(N)=O)c(-c3ccncc3)c1)CC(C)(C)CC2=O [Compound 77, 2-pyridin-4-yl-4-(2,6,6-trimethyl-4-oxo-4,5,6,7-tetrahydro-1H-indol-1-yl)benzamide]	5 to 50	++
CC(=O)Nc1cc(-n2cc(C)c3c2CC(C)(C)CC3=O)ccc1C(N)=O [Compound 98, 2-(acetylamino)-4-(3,6,6-trimethyl-4-oxo-4,5,6,7-tetrahydro-1H-indol-1-yl)benzamide]	< 0.5	+++
CC(=O)OCC(=O)NCCNc1cc(-n2cc(C)c3c2CC(C)(C)CC3=O)ccc1C(N)=O [Compound 111, 2-[(2-{[2-(aminocarbonyl)-5-(3,6,6-trimethyl-4-oxo-4,5,6,7-tetrahydro-1H-indol-1-yl)phenyl]amino}ethyl)amino]-2-oxoethyl acetate]		+++
Cc1nn(-c2ccc(C(N)=O)c(Nc3ccc(=O)[nH]c3)c2)c2c1C(=O)CC(C)(C)C2 [Compound 115, 2-[(6-oxo-1,6-dihydropyridin-3-yl)amino]-4-(3,6,6-trimethyl-4-oxo-4,5,6,7-tetrahydro-1H-indazol-1-yl)benzamide]		+++
Cc1cc2c(n1-c1ccc(C(N)=O)c(N[C@H](C(=O)O)C(C)C)c1)CC(C)(C)CC2=O [Compound 78, N-[2-(aminocarbonyl)-5-(2,6,6-trimethyl-4-oxo-4,5,6,7-tetrahydro-1H-indol-1-yl)phenyl]-L-valine]		+
